Key:
[1] = biological target: T1, human α2A receptor (Homo sapiens, UniProt P08913); assay: Binding to cloned human α2A adrenergic receptor ([3H]rauwolscine)
T1 construct: expressed in transfected cells
Method: (§1) α2 Human Adrenergic Receptors: To determine the binding of compounds to human α2 receptors, LM(tk−) cell lines stably transfected with the genes encoding the α2A, α2B, and α2C receptors were used. […] Cell lysates were prepared as described below (see Radioligand Dinding to Membrane Suspensions), and suspended in 25 mM glycylglycine buffer (pH 7.6 at room temperature). Equilibrium competition binding assay were performed using [^3H]rauwolscine (0.5 nM), and nonspecific binding was determined by incubation with 10 μM phentolamine.

[2] = biological target: T2, human 5HT2 receptor (Homo sapiens, UniProt P28223); assay: Binding to human 5HT2 receptor ([3H]ketanserin); settings: cloned human receptor
T2 construct: expressed in transfected cells; host or cells: COS-7 cells (DEAE-dextran); the same paragraph also names the deposited line L-NGC-5HT2 (ATCC CRL 10287)
T2 sequence (P28223 whole entry): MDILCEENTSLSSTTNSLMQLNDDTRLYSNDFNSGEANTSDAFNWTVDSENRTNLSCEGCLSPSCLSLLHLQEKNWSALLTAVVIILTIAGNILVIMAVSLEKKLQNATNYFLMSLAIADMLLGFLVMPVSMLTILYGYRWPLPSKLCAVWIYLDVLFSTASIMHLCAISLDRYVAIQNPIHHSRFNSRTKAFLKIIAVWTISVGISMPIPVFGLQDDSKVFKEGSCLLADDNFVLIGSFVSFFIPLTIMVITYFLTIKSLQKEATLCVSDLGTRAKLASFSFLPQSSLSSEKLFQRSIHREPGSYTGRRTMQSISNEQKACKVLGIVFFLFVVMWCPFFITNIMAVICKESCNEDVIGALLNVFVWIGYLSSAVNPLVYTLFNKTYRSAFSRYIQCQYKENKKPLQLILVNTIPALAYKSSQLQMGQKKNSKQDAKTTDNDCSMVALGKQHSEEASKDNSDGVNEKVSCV
Method: Human 5HT2 Receptor: The coding sequence of the human 5HT2 receptor was obtained from a human brain cortex cDNA library, and cloned into the cloning site of pCEXV-3 eukaryotic expression vector. […] The pellet was suspended in 50 mM Tris-HCl buffer (pH 7.7 at room temperature) containing 10 mM MgSO4, 0.5mM EDTA, and 0.1% ascorbate. […] Nonspecific binding was defined by the addition of 10 μM mianserin.

[3] = biological target: T3, human α2B receptor (Homo sapiens, UniProt P18089); assay: Binding to cloned human α2B adrenergic receptor ([3H]rauwolscine)
T3 construct: expressed in transfected cells
T3 sequence (P18089 whole entry): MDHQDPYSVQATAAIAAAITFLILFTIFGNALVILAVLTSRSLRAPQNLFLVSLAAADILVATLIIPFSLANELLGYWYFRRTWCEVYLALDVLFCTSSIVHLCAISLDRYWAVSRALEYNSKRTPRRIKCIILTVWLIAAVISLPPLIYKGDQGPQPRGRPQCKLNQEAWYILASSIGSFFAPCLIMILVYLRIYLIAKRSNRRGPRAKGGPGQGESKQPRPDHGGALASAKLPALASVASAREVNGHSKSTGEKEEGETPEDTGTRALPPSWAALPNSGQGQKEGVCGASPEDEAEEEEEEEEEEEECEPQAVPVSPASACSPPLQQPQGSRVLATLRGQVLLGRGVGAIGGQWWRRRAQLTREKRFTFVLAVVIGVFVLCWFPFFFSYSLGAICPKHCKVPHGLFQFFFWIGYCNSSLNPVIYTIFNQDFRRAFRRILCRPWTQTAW
Method: as §1

[4] = biological target: T4, human 5HT1E receptor (Homo sapiens, UniProt P28566); assay: Binding to human 5HT1E receptor ([3H]serotonin); settings: cloned human receptor
T4 construct: expressed in transfected cells
T4 sequence (P28566 whole entry): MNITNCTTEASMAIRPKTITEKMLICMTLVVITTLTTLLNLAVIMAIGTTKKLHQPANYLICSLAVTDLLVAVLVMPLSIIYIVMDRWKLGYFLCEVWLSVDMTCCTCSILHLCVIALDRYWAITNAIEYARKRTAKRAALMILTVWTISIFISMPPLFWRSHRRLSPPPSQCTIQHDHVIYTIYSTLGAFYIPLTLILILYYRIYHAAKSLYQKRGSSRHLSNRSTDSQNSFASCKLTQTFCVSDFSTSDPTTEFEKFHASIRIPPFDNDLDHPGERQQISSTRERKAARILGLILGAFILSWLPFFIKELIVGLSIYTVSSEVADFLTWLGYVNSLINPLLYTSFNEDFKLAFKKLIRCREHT
Method: 5HT1Dα, 5HT1Dβ, 5HT1E, 5HT1F Receptors: LM(tk−) clonal cell lines stably transfected with the genes encoding each of these 5HT receptor subtypes were prepared as described above. The cell line for the 5HT1Dα, receptor, designated as Ltk−8-30-84, was deposited on Apr. 17, 1990, and accorded ATCC Accession No. CRL 10421. The cell for the 5HT1Dβ receptor, designated as Ltk−11, was deposited on Apr. 17, 1990, and accorded ATCC Accession No. CRL 10422. The cell line for the 5HT1E receptor, designated 5 HT1E-7, was deposited on Nov. 6, 1991, and accorded ATCC Accession No. CRL 10913. The cell line for the 5HT1F receptor, designated L-5-HT1F, was deposited on Dec. 27, 1991, and accorded ATCC Accession No. ATCC 10957. Membrane preparations comprising these receptors were prepared as described below, and suspended in 50 mM Tris-HCl buffer (pH 7.4 at 37° C.) containing 10 mM MgCl2, 0.2 mM EDTA, 10 μM pargyline, and 0.1% ascorbate. The binding of compounds was determined in competition binding assays by incubation for 30 minutes at 37° C. in the presence of 5 nM [^3H) serotonin. Nonspecific binding was determined in the presence of 10 μM serotonin. The bound radioligand was separated by filtration through GF/B filters using a cell harvester.

[5] = biological target: T5, human Y5 receptor (Homo sapiens, UniProt Q15761); assay: Radioligand binding to cloned human Y5 receptor (125I-PYY); settings: cloned human Y5, stably transfected cells, read-out: Binding Affinity (K1 (nM) vs. 125I-PYY) Human Receptor Y5
T5 construct: expressed in transfected cells
T5 sequence (Q15761 1-445): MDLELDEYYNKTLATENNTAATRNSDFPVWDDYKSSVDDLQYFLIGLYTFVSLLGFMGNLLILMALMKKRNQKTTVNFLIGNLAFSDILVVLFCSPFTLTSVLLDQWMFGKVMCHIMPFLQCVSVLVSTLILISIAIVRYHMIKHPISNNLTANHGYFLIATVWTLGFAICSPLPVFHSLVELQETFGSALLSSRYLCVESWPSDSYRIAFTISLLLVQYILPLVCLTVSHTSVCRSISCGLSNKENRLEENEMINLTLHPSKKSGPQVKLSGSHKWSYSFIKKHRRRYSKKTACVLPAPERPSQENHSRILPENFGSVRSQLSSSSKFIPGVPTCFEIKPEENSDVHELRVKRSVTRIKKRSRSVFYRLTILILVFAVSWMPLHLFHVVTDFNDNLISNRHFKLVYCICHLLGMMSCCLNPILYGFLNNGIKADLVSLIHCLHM
Method: Membranes were harvested from COS-7 cells 48 hours after transient transfection. […] Large particles and debris were cleared by low speed centrifugation (200 x g, 5 min, 4° C.). […] Membranes were held on ice for up to one hour and used fresh, or flash-frozen and stored in liquid nitrogen.
Incubations were terminated by filtration over Whatman GF/C filters (pre-coated with 1% polyethyleneimine and air-dried before use), followed by washing with 5 mL of ice-cold binding buffer.

[6] = biological target: T6, cloned human Y5 receptor (Homo sapiens, UniProt Q15761); assay: Functional assay: block of NPY-induced inhibition of cAMP accumulation in forskolin-stimulated LM(tk-) cells (radioimmunoassay of cAMP); assay type: cell-based; settings: antagonism of NPY-induced inhibition of cAMP accumulation, forskolin-stimulated LM(tk-) cells with human Y5; at least three experiments
T6 construct: expressed in transfected cells
T6 sequence (Q15761 1-445): T5 sequence (Q15761 1-445)
Method: LM(tk−) cells stably transfected with the human Y5 receptor were routinely converted from an adherent monolayer to a viable suspension. […] The cell suspension was maintained in a shaking incubator at 37° C., 5% CO2 for 24 hours.
Stably transfected cells were seeded into 96-well microtiter plates and cultured until confluent.
The ability of the compounds to antagonize the Y-type receptors is reported as the Kb. […] Results shown are representative of at least three indepenent experiments.

[7] = biological target: T7, human 5HT1Dβ receptor (Homo sapiens, UniProt P28222); assay: Binding to human 5HT1Dβ receptor ([3H]serotonin); settings: cloned human receptor
T7 construct: expressed in transfected cells
T7 sequence (P28222 whole entry): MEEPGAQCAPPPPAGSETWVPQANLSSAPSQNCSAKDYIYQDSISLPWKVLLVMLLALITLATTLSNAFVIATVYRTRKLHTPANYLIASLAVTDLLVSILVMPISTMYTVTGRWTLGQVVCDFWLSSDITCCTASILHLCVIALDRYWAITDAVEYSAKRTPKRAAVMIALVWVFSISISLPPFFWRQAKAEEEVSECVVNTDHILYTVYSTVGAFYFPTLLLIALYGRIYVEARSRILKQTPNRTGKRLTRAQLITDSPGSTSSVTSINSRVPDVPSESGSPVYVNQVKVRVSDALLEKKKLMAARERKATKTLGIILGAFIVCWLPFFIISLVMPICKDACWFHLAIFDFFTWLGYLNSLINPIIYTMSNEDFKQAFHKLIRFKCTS
Method: (§2) 5HT1Dα, 5HT1Dβ, 5HT1E, 5HT1F Receptors: LM(tk−) clonal cell lines stably transfected with the genes encoding each of these 5HT receptor subtypes were prepared as described above. […] Membrane preparations comprising these receptors were prepared as described below, and suspended in 50 mM Tris-HCl buffer (pH 7.4 at 37° C.) containing 10 mM MgCl2, 0.2 mM EDTA, 10 μM pargyline, and 0.1% ascorbate. The binding of compounds was determined in competition binding assays by incubation for 30 minutes at 37° C. in the presence of 5 nM [^3H) serotonin. Nonspecific binding was determined in the presence of 10 μM serotonin.

[8] = biological target: T8, human α1b receptor (Homo sapiens, UniProt P35368); assay: Binding to cloned human α1b adrenergic receptor
T8 construct: expressed in transfected cells
T8 sequence (P35368 whole entry): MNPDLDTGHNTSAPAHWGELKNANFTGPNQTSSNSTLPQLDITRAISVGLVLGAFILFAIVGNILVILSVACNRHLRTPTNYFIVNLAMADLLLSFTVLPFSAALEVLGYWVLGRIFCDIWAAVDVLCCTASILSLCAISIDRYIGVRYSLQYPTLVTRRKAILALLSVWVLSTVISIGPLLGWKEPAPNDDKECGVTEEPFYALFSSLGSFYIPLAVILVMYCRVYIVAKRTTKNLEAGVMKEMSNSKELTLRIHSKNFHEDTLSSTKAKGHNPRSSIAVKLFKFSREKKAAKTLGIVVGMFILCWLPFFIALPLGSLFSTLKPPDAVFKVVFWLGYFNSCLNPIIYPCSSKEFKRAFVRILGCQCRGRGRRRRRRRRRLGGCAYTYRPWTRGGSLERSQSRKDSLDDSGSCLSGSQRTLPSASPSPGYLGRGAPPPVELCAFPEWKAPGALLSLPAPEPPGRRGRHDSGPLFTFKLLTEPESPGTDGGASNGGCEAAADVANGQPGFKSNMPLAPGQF
From the text: (§3) α1 Human Adrenergic Receptors: To determine the binding of compounds to human α1 receptors, LM(tk−) cell lines stably transfected with the genes encoding the α1a, α1b, and α1d receptors were used. The nomenclature describing the α1 receptors was changed recently, such that the receptor formerly designated α1a is now designated α1d, and the receptor formerly designated α1c is now designated α1a (ref).

[9] = biological target: T9, human Y4 receptor (Homo sapiens, UniProt P50391); assay: Radioligand binding to cloned human Y4 receptor (125I-PYY); settings: cloned human Y4, stably transfected cells, read-out: Binding Affinity (K1 (nM) vs. 125I-PYY) Human Receptor Y4
T9 construct: expressed in transfected cells
T9 sequence (P50391 whole entry): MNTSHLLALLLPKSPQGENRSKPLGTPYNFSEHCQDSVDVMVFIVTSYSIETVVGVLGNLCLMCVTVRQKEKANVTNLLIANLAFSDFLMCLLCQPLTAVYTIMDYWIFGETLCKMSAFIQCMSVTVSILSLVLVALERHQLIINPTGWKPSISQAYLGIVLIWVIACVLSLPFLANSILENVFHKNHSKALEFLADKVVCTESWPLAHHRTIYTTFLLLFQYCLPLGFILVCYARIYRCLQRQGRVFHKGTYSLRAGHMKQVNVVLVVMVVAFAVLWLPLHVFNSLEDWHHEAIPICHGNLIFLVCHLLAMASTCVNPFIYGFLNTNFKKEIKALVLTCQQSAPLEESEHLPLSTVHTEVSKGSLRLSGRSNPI
Method: Human Y1, human Y2, and rat Y5 receptors were co-transfected with a G-418 resistant gene into the human embryonic kidney 293 cell line by a calcium phosphate transfection method (Cullen, 1987). Stably transfected cells were selected with G-418. Human Y4 and human Y5 receptors were similarly transfected into mouse fibroblast LM(tk−) cells and NIH-3T3 cells.
Binding of the compounds of the present invention to the human Y1, Y2, Y4 and Y5 receptors was evaluated using stably transfected 293 or LM(tk−) cells as described above. Stably transfected cell lines which may be used for binding assays include, for example, for the human Y1 receptor, 293-hY1-5 (deposited Jun. 4, 1996, under ATCC Accession No. CRL-12121), for the human Y2 receptor, 293-hY2-10 (deposited Jan. 27, 1994, under ATCC Accession No. CRL-11537), for the human Y4 receptor, L-hY4-3 (deposited Jan. 11, 1995, under ATCC Accession No. CRL-11779), and for the human Y5 receptor, L-hY5-7 (deposited Nov. 15, 1995, under ATCC Accession No. CRL-11995).
Membranes were harvested from COS-7 cells 48 hours after transient transfection. Adherent cells were washed twice in ice-cold phosphate buffered saline (138 mM NaCl, 8.1 mM Na2HPO4, 2.5 mM KCl, […], 0.9 mM CaCl2, 0.5 mM MgCl2, pH 7.4) and lysed by sonication in ice-cold sonication buffer (20 mM Tris-HCl, 5 mM EDTA, pH 7.7). Large particles and debris were cleared by low speed centrifugation (200 x g, 5 min, 4° C.). Membranes were collected from the supernatant fraction by centrifugation (32,000 x g, 18 min, […] ), washed with ice-cold hypotonic buffer, and collected again by centrifugation (32,000 x g, 18 min, 4° C.). […] Protein concentration was measured by the Bradford method (Bradford, 1976) using Bio-Rad Reagent, with bovine serum albumin as a standard. Membranes were held on ice for up to one hour and used fresh, or flash-frozen and stored in liquid nitrogen.
Membranes were prepared similarly from 293, LM(tk−), and NIH-3T3 cells. To prepare membranes from baculovirus infected cells, 2×10^7 Sf21 cells were grown in 150 mm tissue culture dishes and infected with a high-titer stock of hY5BB3. Cells were incubated for 2-4 days at 27° C., no CO2 be fore harvesting and membrane preparation as described above.

[10] = biological target: T10, human α1a receptor (Homo sapiens, UniProt P35348); assay: Binding to cloned human α1a adrenergic receptor
T10 construct: expressed in transfected cells
T10 sequence (P35348 whole entry): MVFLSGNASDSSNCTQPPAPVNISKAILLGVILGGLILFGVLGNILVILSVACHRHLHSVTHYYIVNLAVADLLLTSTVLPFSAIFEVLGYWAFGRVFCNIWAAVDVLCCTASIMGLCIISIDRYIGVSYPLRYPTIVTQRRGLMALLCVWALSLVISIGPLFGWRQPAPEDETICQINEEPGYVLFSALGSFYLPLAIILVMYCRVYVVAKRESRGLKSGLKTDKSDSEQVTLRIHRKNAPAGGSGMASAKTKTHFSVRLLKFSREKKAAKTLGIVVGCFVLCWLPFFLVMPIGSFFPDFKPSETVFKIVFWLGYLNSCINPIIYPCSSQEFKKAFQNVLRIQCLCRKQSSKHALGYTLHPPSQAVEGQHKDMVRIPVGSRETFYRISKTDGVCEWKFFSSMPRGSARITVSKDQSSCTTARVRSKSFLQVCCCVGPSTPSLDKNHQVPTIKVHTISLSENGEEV
From the text: as §3

[11] = biological target: T11, human 5HT1Dα receptor (Homo sapiens, UniProt P28221); assay: Binding to human 5HT1Dα receptor ([3H]serotonin); settings: cloned human receptor
T11 construct: expressed in transfected cells
T11 sequence (P28221 whole entry): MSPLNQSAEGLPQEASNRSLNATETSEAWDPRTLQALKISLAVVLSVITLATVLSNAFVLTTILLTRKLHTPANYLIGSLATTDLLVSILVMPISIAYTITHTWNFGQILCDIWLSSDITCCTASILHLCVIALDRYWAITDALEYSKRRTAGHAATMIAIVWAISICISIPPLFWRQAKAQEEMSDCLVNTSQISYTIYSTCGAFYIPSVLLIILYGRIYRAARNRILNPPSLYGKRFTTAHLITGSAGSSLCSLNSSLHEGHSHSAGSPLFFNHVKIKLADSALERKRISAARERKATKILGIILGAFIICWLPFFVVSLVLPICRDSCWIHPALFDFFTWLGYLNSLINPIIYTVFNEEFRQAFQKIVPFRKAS
Method: as §2

T1 sequence (P08913 whole entry): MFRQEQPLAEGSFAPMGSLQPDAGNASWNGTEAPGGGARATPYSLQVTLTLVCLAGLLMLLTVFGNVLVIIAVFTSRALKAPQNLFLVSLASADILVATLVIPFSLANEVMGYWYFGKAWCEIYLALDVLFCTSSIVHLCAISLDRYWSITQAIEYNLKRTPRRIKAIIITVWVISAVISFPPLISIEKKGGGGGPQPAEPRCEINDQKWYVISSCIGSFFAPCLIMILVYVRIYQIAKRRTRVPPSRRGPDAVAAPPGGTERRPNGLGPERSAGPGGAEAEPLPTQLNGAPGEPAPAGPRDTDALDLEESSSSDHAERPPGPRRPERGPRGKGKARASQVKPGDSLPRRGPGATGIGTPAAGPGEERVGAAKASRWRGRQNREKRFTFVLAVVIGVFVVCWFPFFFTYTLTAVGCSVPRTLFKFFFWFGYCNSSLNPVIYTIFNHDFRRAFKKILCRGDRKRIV

Row | Structure (SMILES) | Receptor (pKi) α2a [1] | Receptor (pKi) 5HT2 [2] | Receptor (pKi) α2b [3] | Receptor (pKi) 5HT1E [4] | Ki [5] [nM] | Kb [6] [nM] | Receptor (pKi) 5HT1Dβ [7] | Receptor (pKi) α1b [8] | Ki [9] [nM] | Receptor (pKi) α1a [10] | Receptor (pKi) 5HT1Dα [11]
1 | Cl.O=S(=O)(NCC1CCC(CNCC2CCc3ccccc3C2)CC1)c1cccc2ccccc12 (stereo not shown) [Example 32] | 6.74 | 6.55 | 6.58 | ≤ 5.30 | 11 | 23 | ≤ 5.30 | 7.35 | 11700 | 7.47 | 6.04
2 | Cl.O=[N+]([O-])c1ccccc1S(=O)(=O)NCC1CCC(CNCC2CCc3ccccc3C2)CC1 (stereo not shown) [Example 36] | 7.31 | 5.93 | 6.96 | ≤ 5.30 | 8.3 | 26 | 5.37 | 7.22 | 20400 | 7.72 | 5.94
